Consider twelve compounds from US10435399B2, “HDAC6 inhibitory heterocyclic compound” (TAKEDA PHARMACEUTICAL COMPANY LIMITED, priority 2017, dated 2019).

This assay deals with T1, HDAC6 enzyme (Homo sapiens, UniProt Q9UBN7).
T1 construct: transducing full length HDAC6 gene into Sf-9 insect cells; GST; purchased SignalChem; host or cells: Sf-9 insect cells
T1 sequence (Q9UBN7 1-1215): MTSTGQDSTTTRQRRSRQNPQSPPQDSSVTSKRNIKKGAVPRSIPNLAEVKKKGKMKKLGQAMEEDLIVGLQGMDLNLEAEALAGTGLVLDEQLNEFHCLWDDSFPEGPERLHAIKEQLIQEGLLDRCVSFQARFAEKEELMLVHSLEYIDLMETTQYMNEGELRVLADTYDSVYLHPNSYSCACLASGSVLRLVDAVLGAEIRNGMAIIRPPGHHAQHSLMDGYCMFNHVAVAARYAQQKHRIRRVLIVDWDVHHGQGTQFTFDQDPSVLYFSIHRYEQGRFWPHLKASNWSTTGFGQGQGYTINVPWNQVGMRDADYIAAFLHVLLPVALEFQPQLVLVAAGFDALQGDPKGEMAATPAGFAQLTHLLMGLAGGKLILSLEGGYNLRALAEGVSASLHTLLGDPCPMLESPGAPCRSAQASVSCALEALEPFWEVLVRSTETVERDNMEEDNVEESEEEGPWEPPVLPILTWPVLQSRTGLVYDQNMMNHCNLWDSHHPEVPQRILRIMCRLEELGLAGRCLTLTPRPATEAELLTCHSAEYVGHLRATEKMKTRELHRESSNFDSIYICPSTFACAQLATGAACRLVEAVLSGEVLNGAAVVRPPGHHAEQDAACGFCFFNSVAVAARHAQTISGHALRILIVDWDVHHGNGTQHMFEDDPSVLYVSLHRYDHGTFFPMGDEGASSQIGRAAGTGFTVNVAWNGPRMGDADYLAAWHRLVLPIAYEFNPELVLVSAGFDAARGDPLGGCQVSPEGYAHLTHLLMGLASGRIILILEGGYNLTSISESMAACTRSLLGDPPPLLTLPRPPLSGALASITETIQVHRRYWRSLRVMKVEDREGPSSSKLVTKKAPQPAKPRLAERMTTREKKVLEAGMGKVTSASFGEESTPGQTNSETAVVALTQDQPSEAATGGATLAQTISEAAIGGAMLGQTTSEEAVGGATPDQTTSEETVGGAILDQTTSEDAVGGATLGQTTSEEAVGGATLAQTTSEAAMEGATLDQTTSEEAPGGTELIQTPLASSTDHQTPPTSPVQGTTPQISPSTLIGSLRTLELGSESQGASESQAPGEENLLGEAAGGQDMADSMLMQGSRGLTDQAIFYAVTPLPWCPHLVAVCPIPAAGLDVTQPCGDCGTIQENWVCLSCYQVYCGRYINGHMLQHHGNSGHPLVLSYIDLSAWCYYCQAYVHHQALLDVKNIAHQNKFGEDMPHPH
Briefly: HDAC6 enzyme inhibitory activity (HDAC-Glo I/II Assay kit). The class given is biochemical. The conditions noted are these: 10 μM; wells without enzyme = 100% inhibition; read-out: HDAC6 inhibitory rate (%) (10 μM). The essentials: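 Inhibition is calculated as relative activity, taking luminescence in enzyme-free wells as complete inhibition. The enzyme, full-length and GST-purified after Sf-9 expression, was exposed to compound for 60 min at room temperature before a 20 min HDAC-Glo reaction.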

With `O=C1OCCN1[C@@H]1CCCC[C@H]1N1Cc2c(F)cc(-c3nnc(C(F)F)o3)cc2C1=O` [Example 138, 6-(5-(difluoromethyl)-1,3,4-oxadiazol-2-yl)-4-fluoro-2-((1R,2R)-2-(2-oxo-1,3-oxazolidin-3-yl)cyclohexyl)isoindolin-1-one], the inhibition at 10 µM came out at 98%. For `O=C1c2cc(-c3nnc(C(F)F)o3)cnc2CN1Cc1ccccc1` [Example 139, 6-benzyl-3-(5-(difluoromethyl)-1,3,4-oxadiazol-2-yl)-6,7-dihydro-5H-pyrrolo[3,4-b]pyridin-5-one], the inhibition at 10 µM was found to be 100%. As for `C[C@H](c1ccc(F)cc1)N1Cc2ncc(-c3nnc(C(F)F)o3)cc2C1=O` [Example 140, 3-(5-(difluoromethyl)-1,3,4-oxadiazol-2-yl)-6-((1R)-1-(4-fluorophenyl)ethyl)-6,7-dihydro-5H-pyrrolo[3,4-b]pyridin-5-one], the inhibition at 10 µM was 100%. To `C[C@@H](c1ccc(F)cc1)N1Cc2ncc(-c3nnc(C(F)F)o3)cc2C1=O` [Example 141, 3-(5-(difluoromethyl)-1,3,4-oxadiazol-2-yl)-6-((1S)-1-(4-fluorophenyl)ethyl)-6,7-dihydro-5H-pyrrolo[3,4-b]pyridin-5-one] belongs 100%; to `O=C(N[C@@H]1CCCC[C@H]1N1C(=O)c2ccc(-c3nnc(C(F)F)o3)cc2C1=O)OCc1ccccc1` [Example 142, benzyl ((1R,2R)-2-(5-(5-(difluoromethyl)-1,3,4-oxadiazol-2-yl)-1,3-dioxo-1,3-dihydro-2H-isoindol-2-yl)cyclohexyl)carbamate], 99%. As to `O=C1c2cc(-c3nnc(C(F)F)o3)ccc2CN1Cc1ncccc1Cl` [Example 143, 2-((3-chloropyridin-2-yl)methyl)-6-(5-(difluoromethyl)-1,3,4-oxadiazol-2-yl)isoindolin-1-one], the inhibition at 10 µM was 95%. As to `O=C1c2cc(-c3nnc(C(F)F)o3)ccc2CN1Cc1cncc(C(F)(F)F)c1` [Example 144, 6-(5-(difluoromethyl)-1,3,4-oxadiazol-2-yl)-2-((5-(trifluoromethyl)pyridin-3-yl)methyl)isoindolin-1-one], the inhibition at 10 µM was found to be 97%. As for `CS(=O)(=O)c1cccc(CN2Cc3ccc(-c4nnc(C(F)F)o4)cc3C2=O)c1` [Example 145, 6-(5-(difluoromethyl)-1,3,4-oxadiazol-2-yl)-2-(3-(methylsulfonyl)benzyl)isoindolin-1-one], the inhibition at 10 µM turned out to be 100%.

For `O=C1c2cc(-c3nnc(C(F)F)o3)ccc2CN1Cc1cc(C2CC2)on1` [Example 146, 2-((5-cyclopropyl-1,2-oxazol-3-yl)methyl)-6-(5-(difluoromethyl)-1,3,4-oxadiazol-2-yl)isoindolin-1-one], the inhibition at 10 µM came out at 94%.

For `O=C1c2cc(-c3nnc(C(F)F)o3)ccc2CN1Cc1ncc(F)cc1F` [Example 147, 6-(5-(difluoromethyl)-1,3,4-oxadiazol-2-yl)-2-((3,5-difluoropyridin-2-yl)methyl)isoindolin-1-one], the inhibition at 10 µM worked out at 93%. `CC(C)(C)OC(=O)N[C@@H]1CCCC[C@H]1N1Cc2c(F)cc(-c3nnc(C(F)F)o3)cc2C1=O` [Example 148, tert-butyl ((1R,2R)-2-(6-(5-(difluoromethyl)-1,3,4-oxadiazol-2-yl)-4-fluoro-1-oxo-1,3-dihydro-2H-isoindol-2-yl)cyclohexyl)carbamate]: the inhibition at 10 µM was 99%.

With `O=C1c2cc(-c3nnc(C(F)F)o3)cnc2CN1[C@@H]1CCCC[C@H]1NC(=O)C1(C(F)(F)F)CC1` [Example 149, N-((1R,2R)-2-(3-(5-(difluoromethyl)-1,3,4-oxadiazol-2-yl)-5-oxo-5,7-dihydro-6H-pyrrolo[3,4-b]pyridin-6-yl)cyclohexyl)-1-(trifluoromethyl)cyclopropanecarboxamide], the inhibition at 10 µM amounted to 102%.
